GI50 and TGI data for 13 molecules are collected here from PubChem BioAssay (NCI).

What all share (assay): NCI-60 cell line screen, 48 h
Assay [1] deals with TK-10 renal.
Assay [2] concerns UO-31 renal.
Assay [3] relates to BT-549 breast.
For assay [4], the system named is A498 renal.
Assay [5] deals with SW-620 colon.
In assay [6] the test system is NCI-H23 lung.
The subject of assay [7] is HOP-92 NSCLC.
For assay [8], the system named is PC-3 prostate.
Assay [9] has as its system KM12 colon.
Assay [10] deals with COLO 205 colon.

Values joined by “and” are separate entries in the source; they are usually repeats but may differ in a detail not shown here. Identical values can stand only once.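 Briefly, cells in 96-well plates were exposed to five compound concentrations for 48 h, and endpoints were estimated by linear interpolation. Abbreviation: GI50, concentration required for 50% inhibition of growth. TGI: concentration producing complete growth inhibition.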

Regarding `COc1cc2ncnc(Nc3ccc(Oc4ccnc(C)c4)c(C)c3)c2cc1NC(=O)CC1CCSS1` (stereo not given), the GI50 in assay [1] was 0.896 µM; in assay [2], 0.853 µM; in assay [3], 1.2 µM; in [4], 7.94 µM; in assay [5], 1.14 µM; in assay [6], 1.07 µM. The GI50 in assay [7] is 3.75 µM. The TGI in assay [1] came out at 1.84 µM; in assay [2], 2.83 µM; in assay [3], 2.94 µM; in assay [4], 22.8 µM; in assay [5], 2.71 µM; in assay [6] it was 2.5 µM. Moreover, the TGI in assay [7] was determined as 23.1 µM.
In the case of `Oc1ccc(C(O)(c2ccccc2)c2ccccc2)c2ccccc12`, the TGI worked out at 14.2 µM in assay [8]; 8.73 µM in [1]; 8.05 µM in assay [9]; 18.6 µM in [10]; 11.6 µM in [2]; 26.1 µM in [3]. Moreover, the TGI in assay [5] is 9.64 µM; in [6], 11.8 µM; in assay [7], 5.22 µM.
With `COc1ccc(-c2cn(-c3ccc(OC)c(OC)c3)c(=O)[nH]2)cc1`, the GI50 in assay [8] is greater than 100 µM; in [1], greater than 100 µM; in [9] it was 92.1 µM; in [10] it was greater than 100 µM; in assay [2], greater than 100 µM; in assay [4], greater than 100 µM. Moreover, the GI50 in assay [5], in assay [6] and in [7] was greater than 100 µM each time. The TGI in [8], in assay [1], in [9], in assay [10], in [2] and in assay [4] was greater than 100 µM in each case. Besides, the TGI in [5], in [6] and in [7] was greater than 100 µM each time.
Turning to `CC1=C(C(=O)Nc2ccc(F)c(Cl)c2)C(c2cccc(Oc3ccccc3)c2)NC(=S)N1` (stereo not given), the GI50 in assay [8] is 11.9 µM; in assay [1] it was 16.3 µM; in assay [9], 18.8 µM; in [10] it was 17.9 µM; in assay [2], 13.3 µM; in [3], 14.1 µM. Also, the figures for the GI50 in [5], in [6] and in assay [7] were 16.2 µM, 19.3 µM and 21 µM, respectively. Moreover, the TGI in assay [8] is 48.2 µM; in assay [1], greater than 50 µM; in [9], greater than 50 µM; in assay [10], greater than 50 µM; in assay [2], 44.3 µM; in assay [3], 32.4 µM. Also, the TGI in [5] was 44.2 µM; in assay [6], 39.4 µM; in assay [7], greater than 50 µM.
For `O=C1C=C(OCC=C(C(F)(F)F)C(F)(F)F)c2ccccc2C1=O`, the GI50 in assay [8] is 1.92 µM; in assay [9], 1.67 µM; in assay [10], 2.11 µM; in assay [2], 1.53 µM; in [3], 2.49 µM; in assay [4], 4.36 µM. Moreover, the GI50 in [5] was 1.92 µM; in assay [7], 1.9 µM. Moreover, the TGI in assay [8] is 5.91 µM; in [9], 3.25 µM; in assay [10], 4.73 µM; in assay [2], 3.1 µM; in [3], 6.64 µM; in assay [4] it was 16.6 µM. The TGI in assay [5] amounted to 3.91 µM; in assay [7], 4.37 µM.
Take `COc1ccc(-c2cc(-c3ccc(Cl)cc3)nc(NCCCCNc3ccnc4cc(Cl)ccc34)n2)cc1`: the GI50 in assay [1] was 3.95 µM; in assay [9] it was 1.9 µM; in [10], 1.86 µM; in assay [2], 1.83 µM; in [3] it was 13.4 µM; in assay [4], 4.17 µM. In addition, the GI50 in assay [5] was 1.76 µM; in assay [6], 2.61 µM; in [7] it was 1.67 µM. Further, the TGI in assay [1] was 13.3 µM; in assay [9], 3.72 µM; in [10] it was 4.53 µM; in [2] it was 12.7 µM; in [3] it was 28.6 µM; in assay [4] it was 17.4 µM. Also, the TGI in assay [5] is 3.46 µM; in assay [6], 9.3 µM; in assay [7], 18.3 µM.
As for `COc1cc([N+](=O)[O-])c(S(=O)(=O)O)cc1-n1nc(C(=O)Nc2ccccc2)n[n+]1-c1cc(S(=O)(=O)[O-])c([N+](=O)[O-])cc1OC`, the TGI in [8], in assay [1], in assay [9], in [10], in [2] and in assay [3] was greater than 100 µM throughout. In addition, the TGI in assay [5], in assay [6] and in [7] was greater than 100 µM each time.
On to `COc1ccc2c(c1)/C(=C\c1c(-c3cc(OC)ccc3OC)nc3sccn13)C(=O)N2`, for which the GI50 was 7.97 µM and 2.32 µM in assay [8]; 1.76 µM in [1]; 2 µM in [9]; 1.51 µM in assay [10]; 1.57 µM in [2]; 4.67 µM in assay [3]. The GI50 in assay [6] was 1.47 µM; in [7], 1.76 µM. In addition, the TGI was 5.83 µM in [8]; 3.14 µM in [1]; 3.98 µM in assay [9]; 2.84 µM in [10]; 3.02 µM in assay [2]; 2.83 µM in assay [6]. Besides, the TGI in [7] turned out to be 3.47 µM.
Turning to `Oc1[nH]c2ccccc2c1/C=c1/ccc2c(c1)N=C(c1ccc(C(F)(F)F)cc1)N=2`, the GI50 in assay [8] is 1.54 µM; in assay [1] it was 10.4 µM; in assay [9], 1.09 µM; in assay [10], 9.89 µM; in [2], 2.48 µM; in assay [3], 2.04 µM. Also, the results for the GI50 in assay [4], in assay [5] and in [6] were 1.54 µM, 1.92 µM and 3.39 µM, respectively. For the same molecule, the TGI came out at 3.75 µM in [8]; 22.2 µM in [1]; 12.7 µM in assay [9]; 22.1 µM in [10]; 13 µM in assay [2]; 9.25 µM in [3]. The TGI in assay [4] was determined as 11.2 µM; in [5], 5.55 µM; in assay [6], 15.7 µM.
For `CC[C@H](C)[C@H](NC(=O)[C@H]1CCCCN1C)C(=O)N(C)[C@H](C[C@@H](OC(C)=O)c1cccc(C(=O)N[C@@H](Cc2ccccc2)C[C@H](C)C(=O)O)n1)C(C)C`, the GI50 in assay [8] is 0.00273 µM and 0.0025 µM; in [9], 0.00116 µM and 0.0025 µM; in assay [10], 0.00187 µM; in assay [3], 0.0025 µM; in assay [4], 0.00184 µM and < 0.0025 µM; in [5], 0.000493 µM and 0.0025 µM. Further, the GI50 in assay [6] is 0.00356 µM and 0.0025 µM. The TGI in assay [8] is greater than 25 µM; in assay [1] it was greater than 25 µM; in [9], greater than 25 µM; in [10] it was 0.0143 µM; in assay [2] it was greater than 25 µM; in assay [3] it was 0.0116 µM. Besides, the TGI in assay [5] and in [6] was greater than 25 µM in each case.
On to `NC(Cc1c[nH]c2ccc([N+](=O)[O-])cc12)C(=O)O` (stereo not given), for which the TGI in assay [8], in assay [1], in [9], in [10], in assay [2] and in assay [3] was greater than 100 µM in each case. In addition, the TGI in [4], in [5] and in assay [6] was greater than 100 µM each time.
On to `CN(C)Cc1ccc(NC(=O)c2cncc(C#Cc3cnc(N)c4ncccc34)c2)cc1F`, for which the GI50 in assay [8] was 1.74 µM; in assay [1], 14.5 µM; in assay [9], 1.7 µM; in [2], 2.38 µM; in assay [3] it was 19.4 µM; in assay [4], 6 µM. Besides, the GI50 was 2.23 µM in assay [5], 13.7 µM in assay [6] and 4.53 µM in assay [7]. Further, the TGI in assay [8] was determined as 3.34 µM; in [1] it was 34.9 µM; in assay [9], 3.16 µM; in [2], 4.08 µM; in assay [3], 39.6 µM; in [4], 29 µM. The TGI in assay [5] is 4 µM; in assay [6], 34 µM; in assay [7] it was 21.6 µM.
With `O=C1Nc2ccccc2/C1=C\c1nc(-c2ccccc2F)n2ccccc12`, the GI50 in [8] is 6.81 µM; in assay [1], 4.05 µM; in assay [9], 3.49 µM; in assay [10], 4.08 µM; in [2], 2.12 µM; in [3], 3.37 µM. Moreover, the figures for the GI50 in assay [4], in assay [5] and in [6] were 2.81 µM, 3.97 µM and 4.55 µM, respectively. The TGI in [8] stood at 26.9 µM; in assay [1], 14.2 µM; in assay [9], 14.4 µM; in [10], 14.9 µM; in assay [2], 10.8 µM; in assay [3], 12.9 µM. The TGI in assay [4] was 11 µM; in assay [5], 14.2 µM; in assay [6] it was 17.3 µM.
